What follows are compounds tested against T1, human TGR5 (Homo sapiens, UniProt Q8TDU6) (assay: Cell-based TGR5 assay (cAMP generation, HTRF)). Settings: HEK293 cells stably transfected with human TGR5; cAMP by HTRF; 30 minutes at 37° C.; read-out: pEC50 Human TGR5 (converted).
T1 construct: expressed in transfected cells; host or cells: HEK293
T1 sequence (Q8TDU6 1-330): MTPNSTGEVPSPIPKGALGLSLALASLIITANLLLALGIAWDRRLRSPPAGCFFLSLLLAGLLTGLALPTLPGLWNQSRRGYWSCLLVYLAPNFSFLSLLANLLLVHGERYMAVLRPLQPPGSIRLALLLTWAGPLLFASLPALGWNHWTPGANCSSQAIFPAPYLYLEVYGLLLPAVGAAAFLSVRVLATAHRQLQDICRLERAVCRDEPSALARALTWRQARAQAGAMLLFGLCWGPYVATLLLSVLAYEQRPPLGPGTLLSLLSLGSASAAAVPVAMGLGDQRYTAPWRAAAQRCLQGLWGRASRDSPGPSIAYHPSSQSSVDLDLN
Method in brief: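 Read-out was HTRF detection of cAMP, converted to concentration via a standard curve and fitted (3-parameter logistic) for pEC50 and maximal response. Agonist stimulation used HEK293 cells stably transfected with human TGR5, incubated 30 min at 37° C in IBMX-containing buffer at 0.05 nM to 10 μM compound.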
`CCS(=O)(=O)CCN(CCCC(C)c1ccc(Cl)c(COC2(c3cnccc3-c3ccccc3OC3CC3)CC2)c1)C(=O)[C@@H](O)[C@@H](O)[C@H](O)[C@@H](O)CO` (stereo partly drawn) [Compound I-310, (2S,3S,4R,5S)-N-{4-[4-chloro-3-({1-[4-(2-cyclopropoxyphenyl)pyridin-3-yl]cyclopropoxy}methyl)phenyl]pentyl}-N-[2-(ethanesulfonyl)ethyl]-2,3,4,5,6-pentahydroxyhexanamide] was tested, and the EC50 was less than 100 nM. For `CC(CCCCC(=O)O)c1ccc(Cl)c(CNC2(c3cnccc3-c3ccccc3OC3CC3)CC2)c1` (stereo not shown) [Compound I-249, 6-{4-chloro-3-[({1-[4-(2-cyclopropoxyphenyl)pyridin-3-yl]cyclopropyl}amino)methyl]phenyl}heptanoic acid], the EC50 was less than 100 nM. With `Clc1ccc(Cl)c(COC2(c3cnccc3-c3ccccc3OC3CC3)CCC2)c1` [Compound I-741, 4-(2-cyclopropoxyphenyl)-3-(1-((2,5-dichlorobenzyl)oxy)cyclobutyl)pyridine] the EC50 was less than 100 nM. `CC(CCCC(=O)O)c1ccc(Cl)c(CNC2(c3cnccc3-c3ccccc3OC3CC3)CC2)c1` (single isomer, unassigned) [Compound I-248] was tested, and the EC50 was less than 100 nM. Compound `COCc1ccccc1-c1ccncc1C1(NCc2cc(Cl)ccc2Cl)CC1` [Compound I-12] has an EC50 of 126 to 1000 nM. In the case of `CN(CCCCN(C)S(=O)(=O)c1ccc(Cl)c(COC2(c3cnccc3-c3ccccc3OC3CC3)CC2)c1)C(=O)[C@@H](O)[C@@H](O)[C@H](O)[C@@H](O)CO` [Compound I-461, (2S,3S,4R,5S)-2,3,4,5,6-pentahydroxy-N-methyl-N-{4-[N-methyl4-chloro-3-({1-[4-(2-cyclopropoxyphenyl)pyridin-3-yl]cyclopropoxy}methyl)benzenesulfonamido]butyl}hexanamide], the EC50 was less than 100 nM. `Fc1ccccc1-c1ccncc1C1(NCc2cc(Cl)ccc2Cl)CC1` [Compound I-17, N-[(2,5-dichlorophenyl)methyl]-1-[4-(2-fluorophenyl)pyridin-3-yl]cyclopropan-1-amine] showed an EC50 of 1260 to 10000 nM. Work on `CN(CCC(=O)NC[C@H](O)[C@@H](O)[C@H](O)[C@H](O)CO)S(=O)(=O)c1ccc(Cl)c(COC2(c3cnccc3-c3ccccc3OC3CC3)CC2)c1` [Compound I-434, 3-[N-methyl4-chloro-3-({1-[4-(2-cyclopropoxyphenyl)pyridin-3-yl]cyclopropoxy}methyl)benzenesulfonamido]-N-[(2S,3R,4R,5R)-2,3,4,5,6-pentahydroxyhexyl]propanamide] yielded an EC50 of less than 100 nM. `CN(C[C@H](O)[C@@H](O)[C@H](O)[C@H](O)CO)C(=O)CCCCSc1ccc(Cl)c(CNC2(c3cnccc3-c3ccccc3OC3CC3)CC2)c1` [Compound I-678, 5-({4-chloro-3-[({1-[4-(2-cyclopropoxyphenyl)pyridin-3-yl]cyclopropyl}amino)methyl]phenyl}sulfanyl)-N-methyl-N-[(2S,3R,4R,5R)-2,3,4,5,6-pentahydroxyhexyl]pentanamide] gave an EC50 of less than 100 nM. `CN(C)S(=O)(=O)c1cc(COC2(c3cnccc3-c3ccccc3OC3CC3)CC2)c(Cl)cc1O` [Compound I-731, 4-chloro-5-([1-[4-(2-cyclopropoxyphenyl)pyridin-3-yl]cyclopropoxy]methyl)-2-hydroxy-N,N-dimethylbenzene-1-sulfonamide] was tested, and the EC50 was less than 100 nM. For `Cc1ccc(SCCCCN(CCCS(C)(=O)=O)C(=O)[C@@H](O)[C@@H](O)[C@H](O)[C@@H](O)CO)cc1CNC1(c2cnccc2-c2ccccc2OC2CC2)CC1` [Compound I-548, (2S,3S,4R,5S)-N-[4-({3-[({1-[4-(2-cyclopropoxyphenyl)pyridin-3-yl]cyclopropyl}amino)methyl]-4-methylphenyl}sulfanyl)butyl]-2,3,4,5,6-pentahydroxy-N-(3-methanesulfonylpropyl) hexanamide], the EC50 was 126 to 1000 nM. Compound `CC(CCCCNC(=O)NC[C@H](O)[C@@H](O)[C@H](O)[C@H](O)CO)c1ccc(Cl)c(COC2(c3cnccc3-c3ccccc3OC3CC3)CC2)c1` (stereo partly drawn) [Compound I-275, 1-{5-[4-chloro-3-({1-[4-(2-cyclopropoxyphenyl)pyridin-3-yl]cyclopropoxy}methyl)phenyl]hexyl}-3-[(2S,3R,4R,5R)-2,3,4,5,6-pentahydroxyhexyl]urea] has an EC50 of less than 100 nM. Work on `O=C(NCCCCCOc1ccc(Cl)c(COC2(c3cnccc3-c3ccccc3OC3CC3)CC2)c1)NC[C@H](O)[C@@H](O)[C@H](O)[C@H](O)CO` [Compound I-726, 1-(5-(4-chloro-3-((1-(4-(2-cyclopropoxyphenyl)pyridin-3-yl)cyclopropoxy)methyl)phenoxy)pentyl)-3-((2S,3R,4R,5R)-2,3,4,5,6-pentahydroxyhexyl)urea] yielded an EC50 of 126 to 1000 nM. Work on `CCOc1cc(F)c(F)cc1-c1ccncc1C1(NCc2cc(Cl)ccc2Cl)CC1` [Compound I-15, N-[(2,5-dichlorophenyl)methyl]-1-[4-(2-ethoxy-4,5-difluorophenyl)pyridin-3-yl]cyclopropan-1-amine] yielded an EC50 of 126 to 1000 nM. `O=C([C@@H](O)[C@@H](O)[C@H](O)[C@@H](O)CO)N(CCCCSc1ccc(Cl)c(CNC2(c3cnccc3-c3ccccc3OC3CC3)CC2)c1)CCOCCO` [Compound I-533, (2S,3S,4R,5S)-N-[4-({4-chloro-3-[({1-[4-(2-cyclopropoxyphenyl)pyridin-3-yl]cyclopropyl}amino)methyl]phenyl}sulfanyl)butyl]-2,3,4,5,6-pentahydroxy-N-[2-(2-hydroxyethoxy)ethyl]hexanamide] gave an EC50 of less than 100 nM. Compound `CN(CCCCNC(=O)NCCCCN(C)S(=O)(=O)c1ccc(Cl)c(COC2(c3cnccc3-c3ccccc3OC3CC3)CC2)c1)S(=O)(=O)c1ccc(Cl)c(COC2(c3cnccc3-c3ccccc3OC3CC3)CC2)c1` [Compound I-767, N,N′-((carbonylbis(azanediyl))bis(butane-4,1-diyl))bis(4-chloro-3-((1-(4-(2-cyclopropoxyphenyl)pyridin-3-yl)cyclopropoxy)methyl)-N-methylbenzenesulfonamide)] has an EC50 of 126 to 1000 nM. `CC(CCCC(=O)N(CCCS(C)(=O)=O)C[C@H](O)[C@@H](O)[C@H](O)[C@H](O)CO)c1ccc(Cl)c(CNC2(c3cnccc3-c3ccccc3OC3CC3)CC2)c1` (stereo partly drawn) [Compound I-347, 5-{4-chloro-3-[({1-[4-(2-cyclopropoxyphenyl)pyridin-3-yl]cyclopropyl}amino)methyl]phenyl}-N-(3-methanesulfonylpropyl)-N-[(2S,3R,4R,5R)-2,3,4,5,6-pentahydroxyhexyl]hexanamide] gave an EC50 of less than 100 nM. Compound `O=C(NC[C@H](O)[C@@H](O)[C@H](O)[C@H](O)CO)NC1CCN(S(=O)(=O)c2ccc(Cl)c(COC3(c4cnccc4-c4ccccc4OC4CC4)CC3)c2)C1` (stereo partly drawn) [Compound I-429, 1-{l-[4-chloro-3-({1-[4-(2-cyclopropoxyphenyl)pyridin-3-yl]cyclopropoxy}methyl)benzenesulfonyl]pyrrolidin-3-yl}-3-[(2S,3R,4R,5R)-2,3,4,5,6-pentahydroxyhexyl]urea] has an EC50 of 126 to 1000 nM. `Cc1cc(COC2(c3cnccc3-c3ccccc3OC3CC3)CC2)c(C)cc1CCCCC(=O)NC[C@H](O)[C@@H](O)[C@H](O)[C@H](O)CO` [Compound I-229, 5-[4-({1-[4-(2-cyclopropoxyphenyl)pyridin-3-yl]cyclopropoxy}methyl)-2,5-dimethylphenyl]-N-[(2S,3R,4R,5R)-2,3,4,5,6-pentahydroxyhexyl]pentanamide] was tested, and the EC50 was less than 100 nM.

Reference: patent publication US12084472B2 (Ardelyx, Inc., priority 2015, dated 2024)
